# From US20060276462A1, “Method of treating cognitive decline due to sleep deprivation and stress” (priority 2003, published 2006)
# How the values were obtained:
# AMPA receptor = conditions: cited from earlier work
# [1] = tested on: sleep deprived non-human primates; experiment: Delayed Match To Sample (DMTS) task after sleep deprivation; type: in vivo; conditions: for Performance on DMTS Task (% Correct ± sem): Sleep Deprivation + BCM
# Source text: This task consists of a kind of “heads-up” display wherein the monkey interacts with a computer video display through motions of its hand. […] A fluorescent spot on the back of the monkey's hand is tracked by an overhead camera, and the coordinates of the hand position are proportionally translated into movement of a cursor on the video display. The animal responds to single Sample phase images by placing the cursor inside the image, then after a delay (during which the display is blanked) the animal must select the appropriate Match image (out of 2-6 different images) by placing the cursor inside the image identical to the Sample. Animal performance is scored as correct responses according to length of delay, and complexity of the trial (number of match images). Recent findings have shown that primate hippocampal neurons encode specific features of the task and stimulus, and that strength of the encoding correlates to behavioral success. Recording and on-line analysis of hippocampal neural activity allows tracking of the animal's cognitive performance under various experimental conditions. Two additional measures (eye and limb movement tracking) along with recording of movement sensitive neurons in hippocampus, putamen and motor cortex provide assessment of attention and ability to perform directed motor movements. Thus, it is possible to distinguish behavioral errors due to inattention or slow movements from those caused by inappropriate cognitive processing of the task information.
# (§1) In practice, an animal is trained in the DMTS task such that his daily performance variable is relatively constant. This is judged as baseline performance. Once a stable baseline is established, the subject is deprived of sleep for variable periods in order to establish the effect of sleep deprivation on performance. The ability of an AMPA receptor modulator to ameliorate the decline in performance in the DMTS task is assessed by administered of the test compound prior to or during testing after sleep deprivation. If the test compound is administer prior to the beginning of the test session, then the effect of the drug is compared to performance following sleep deprivation on prior or subsequent days of testing. This protocol allows for the co-administration of a metabolic tracer (such as fluorodeoxyglucose labeled with fluorine-18; FDG) so that regional brain activity can be evaluated using Positron Emission Tomography (PET). Alternatively, an intravenous administration of the test compound midway into the DMTS session allows for a within-session evaluation of drug effect.
# [2] = tested on: sleep deprived non-human primates; experiment: Regional glucose utilization (FDG PET) in brain during DMTS task; type: in vivo
# Method: as §1
# Positron Emission Tomography (PET) was used in order to examine the extent to which different brain regions were effected by sleep deprivation by measuring the uptake of ^18F-labeled fluorodeoxyglucose (FDG) into cells as a measure of metabolic activity. By this method it was observed that there was a general increase in metabolism across all brain regions on test days that followed sleep deprivation compared to normal baseline test days (FIG. 2).
# The absolute values shown in FIG. 2 can be normalized to global brain metabolism (FIG. 3) by the following equation: (ROISD/GSD−ROIBL/GBL)/GBL where ROI mean region of interest, SD means under the condition of sleep deprivation, G means global and BL means under the condition of baseline performance.
smiles,measurement,setting,value
COc1ccc(C(=O)N2CCCC2=O)cc1 [Aniracetam],Mean open time of the AMPA receptor channel,AMPA receptor,increase the mean open time
same,Amplitude of the synaptic current,AMPA receptor; mirrored in the field EPSP,increases the amplitude
same,Duration of the synaptic current,AMPA receptor; mirrored in the field EPSP,prolongs its duration
"O=C(c1ccc2nonc2c1)N1CCOCC1 [BCM, 1-(Benzofurazan-5-ylcarbonyl)morpholine]",Effect on the performance deficit in DMTS task caused by sleep deprivation,"[1]; 0.8 mg/kg (iv), single night of sleep deprivation",completely reversed the performance deficit
same,Performance compared to baseline,"[1]; Subject 1, 0.8 mg/kg (iv) after sleep deprivation",enhanced performance compared to baseline
same,Performance on DMTS Task (% Correct ± sem),"[1]; Subject No. 1, 0.8 mg/kg (iv), baseline 81 ± 2, sleep deprivation 65 ± 1",87 ± 2 % Correct
same,Performance on DMTS Task (% Correct ± sem),"[1]; Subject No. 2, 0.8 mg/kg (iv), baseline 81 ± 2, sleep deprivation 67 ± 4",83 ± 3 % Correct
same,Latencies to respond in the Match phase,"[1]; drug administration after sleep deprivation, FIG. 1",not effected
same,Metabolism (absolute uptake of FDG) in all brain regions,"[2]; BCM following sleep deprivation, compared to vehicle administration, FIG. 2",reduced compared to vehicle administration
same,Metabolism (uptake of FDG) in several brain regions relative to normal,"[2]; BCM following sleep deprivation, FIG. 2",near normal levels
same,Energy demand of the brain to perform the DMTS task (FDG uptake normalized to global brain metabolism),"[2]; FIG. 3, normalized data",reduction in energy demand
"O=C(c1ccc2nccnc2c1)N1CCCCC1 [CX516, 1-(Quinoxaline-6-ylcarbonyl)piperidine]",Improving performance in DMTS task,[1]; in vivo,effective at improving performance
